# Like-named read-outs stand apart in the source and are kept apart here.
# How the values were obtained:
# [1] = system: formalin-induced paw licking; assay: Formalin test in mice (oral administration); format: in vivo, Male CD-1 mice
# Experimental: Formalin test is a model of continuous pain resulting from formalin-induced tissue injury. Nociceptive and inflammatory pain was induced by injection of a dilute formalin solution into the paw, resulting in nocifensive behavior including paw flinching. The formalin model encompasses inflammatory, neurogenic, and central mechanism of pain. The early phase of pain (from 0 to about 10 minutes) is due to nociceptive mechanism and the late phase of pain (from 10-40 minutes) is due to a combination of inflammatory pain and nociceptive mechanism. Pain behavior is assessed using manual paw licking measurements. The endpoints of the study are the number of paw licking events. (Hunskaar et al., Pain, 30:103-114, 1987; Li et al., Molecular Pain, 6:11, 2010)
# Male CD-1 mice, about 34 g, were used in the study. Mice had free access to food and water, were maintained on a 12 hour: 12 hour light/dark schedule for the entire duration of the study, and housed in soft bedding five per cage.
# Immediately prior to testing (at time 0), mice were restrained in a cloth and injected with 20 μL of a 5% formalin solution, subcutaneously into the dorsal surface of the left hind paw. Vehicle control (n=10, water) and test compound diethyl(2-cyanoethyl)phosphonate (n=9, in water) and were administered by oral gavage with a volume of 10 mL/kg to mice. The amounts of test compound were 10, 30, or 100 mg/kg per dose.
# Positive control morphine was administered by subcutaneous injection at 4 mg/kg with a volume of 4 mL/kg to mice (n=10). […] The purpose of morphine is not to serve as a comparison with the test compound.
# Morphine was subcutaneously administered once 15 minutes before formalin injection. The test compounds and vehicle control were orally administered twice (BID), at 60 and 15 minutes before formalin injection at time zero.
# Following formalin injection, animals were placed in individual cages, and manually observed for 60 minutes. The licking events were recorded in five minute intervals continuously for a total of 60 minutes.
# The number of licking events per minute was calculated between 0-10 minutes and 10-40 minutes for vehicle, positive control, and test compound. An ANOVA was done, and if p<0.05, a Dunnett's t test was employed to calculate significant difference between vehicle control and test compound treated groups. A pairwise Student's t test was used to calculate differences between the morphine group and the control group. Significance is set at P<0.05 level.
# [2] = system: IL-6, TNFα, IFNγ, MIP-2 and RANTES; assay: Pro-inflammatory cytokine release in rat challenged in vivo with lipopolysaccharide; conditions: given orally to rat, then lipopolysaccharide challenge in vivo
# [3] = system: arachidonic acid-induced ear swelling; assay: Topical arachidonic acid-induced ear swelling model in mice (topical administration); format: in vivo, Male ICR mice
# Experimental: Diethyl(2-cyanoethyl)phosphonate, was obtained from Sigma-Aldrich and used in this experiment.
# The test compound, indomethacin (positive control), and vehicle (acetone:ethanol/1:1) were evaluated for anti-inflammatory activity in a topical arachidonic acid-induced ear swelling model in mice.
# Male ICR mice weighing 22±2 g were used and randomly divided; the test compound and vehicle control had 10 mice, and indomethacin had 5 mice. Arachidonic Acid (0.5 mg in 20 μl of acetone:ethanol/1:1) was applied topically to the anterior and posterior surfaces of the right ear of each mice. Test substances (in vehicle) and vehicle, as listed in Table 1 were similarly applied 30 min before and 15 min after arachidonic acid application. The thickness of the right ear and the left ear was measured and the difference calculated as an indication of the inflammation in the right ear. Ear swelling was measured by a Dyer model micrometer gauge at 60 and 90 minutes after arachidonic acid application as an index of inflammation. Percent inhibition was calculated according to the formula: Ic−It/Ic×100, where Ic and It refers to increase of ear thickness (mm) in control and treated mice, respectively. An ANOVA was done, and if p<0.05, a Dunnett's t test was employed to calculate significant difference between vehicle control and test compound treated groups. […]
# [4] = system: tail flick response to heat stimulus (49° C. water bath); assay: Tail flick test in mice (oral administration); format: in vivo
# Experimental: Tail flick test is a test of the pain response in animals. Tail flick test is used in basic pain research and to measure the effectiveness of analgesics, by observing the tail flick reaction to heat in an animal. This test assesses the nociceptive response to a local pain stimulus, and the ability of a drug to inhibit this response.
# Vehicle control (water) and test compound diethyl(2-cyanoethyl)phosphonate in water were administered by oral gavage to mice with a volume of 10 mL/kg, twice, at 60 and 15 minutes before the first tail flick measurement. The test compound was administered at a dosage of 10, 30, or 100 mg/kg in water. The positive control compound morphine was administered by subcutaneous injection at 8 mg/kg with a volume of 8 mL/kg, at 15 minutes before the first tail flick measurement. Each group had 10 mice.
# The response of mice to heat stimulus was evaluated by measuring the time of tail-flick or tail-flick latency from 49° C. water bath. Briefly, the animal was placed in a restrainer with its tail hanging down. Approximately 2 inches of the tail was immersed in a beaker of water at 38±1° C. for about 30 seconds, and this was done twice to acclimate the animal to the procedure.
# Subsequently, approximately 2 inches of the tail was immersed in a beaker of water at 49±1° C., at which point a timer was started.
# Tail flick measurements were made 60, 80, 100, and 120 minutes post administration of the first dosage of test compound. An ANOVA was done, and if p<0.05, a Dunnett's t test was employed to calculate significant difference between vehicle control and test compound treated groups. A pairwise Student's t test was used to calculate differences between the morphine group and the control group. […] Analysis with p-values <0.05 is considered significant.
# [5] = system: arachidonic acid-induced ear swelling; assay: Arachidonic acid-induced ear swelling in mice (intraperitoneal administration); format: in vivo; conditions: measured at 90 minutes
# Experimental: The protocols of this experiment were similar to Example 3, except the following differences. Test substance diethyl(2-cyanoethyl)phosphonate was dissolved in PBS to generate 1, 3 and 10 mg/mL testing solutions. Vehicle (PBS) at 10 mL/kg and diethyl(2-cyanoethyl)phosphonate at 10 mL/kg (10, 30, and 100 mg/kg) were administered intraperitoneally at 1 hour, and again 15 minutes before arachidonic acid (0.5 mg/ear) challenge. The positive control dexamethasone was administered orally 3 hours before arachidonic acid.
# An ANOVA was done, and if p<0.05, a Dunnett's t test was employed to calculate significant difference between vehicle control and treated groups. Significance is set at P<0.05 level.
# An ANOVA was done, and if p<0.05, a Dunnett's t test was employed to calculate significant difference between vehicle control and test compound treated groups. A pairwise Student's t test was used to calculate differences between the dexamethasone group and the control group. Significance is set at P<0.05 level.
# [6] = system: formalin-induced paw licking
# Experimental: The test compound diethyl(2-cyanoethyl)phosphonate (375 mM in vehicle, n=16) and vehicle control (acetone:ethanol 1:1, n=16) were administered topically by submerging the mouse left hind paw in the respective solution for about 30 seconds. The paw was then withdrawn and wiped with tissue to avoid excess dermal drying.
# Positive control morphine was administered by subcutaneous injection at 4 mg/kg with a volume of 4 mL/kg to mice (n=16).
# Morphine was subcutaneously administered once 15 minutes before formalin injection. The test compounds and vehicle control were topically administered twice (BID), at 90 and 15 minutes before formalin injection.
# Following formalin injection, animals were placed in individual cages, and manually observed for 60 minutes. The licking events were recorded in five minute intervals continuously for a total of 40 minutes.
# The number of licking events per minute was calculated between 0-10 minutes and 10-40 minutes for vehicle, positive control, and test compound. A two-sample t-test was done to compare the vehicle group with the test compound group. Significance is set at P<0.05 level. The same statistics were done comparing the vehicle group with the positive control group.
structure (smiles),measurement,setting,value
"CCOP(=O)(CCC#N)OCC [Diethyl (2-cyanoethyl) phosphonate, Diethyl(2-cyanoethyl)phosphonate]",Licks per min (Between 0-10 min),"[1]; 100 mg/kg oral BID, early phase",3.1 Licks per min
same,Licks per min (Between 10-40 min),"[1]; 100 mg/kg oral BID, late phase",0.59 Licks per min
same,Duration of efficacy,"[1]; 100 mg/kg oral BID, after 40 minutes",did not last after 40 minutes
same,Difference in the number of events vs control,"[1]; 100 mg/kg oral BID, early phase 0-10 minutes",no statistically significant difference
same,Reduction in the number of events vs vehicle,"[1]; 100 mg/kg oral BID, late phase 10-40 minutes",statistically significant (p<0.05) reduction
same,"Inhibition of pro-inflammatory cytokine release (IL-6, TNFα, IFNγ, MIP-2 and RANTES)",[2],effective in inhibiting pro-inflammatory cytokine release
same,Anti-inflammatory activity in mouse ear swelling model,"[3]; applied topically, inflammation induced by arachidonic acid",anti-inflammatory
same,% Inhibition of ear swelling,"[3]; topical, 375 mM in acetone:ethanol (1:1), 20 μL (1.4 mg/ear) applied twice, 90 minutes after arachidonic acid",55%
same,Tail flick latency compared with vehicle-treated mice,"[4]; 30 mg/kg oral, given twice, measured at 60, 80, 100, 120 minutes, FIG. 1",statistically significant tail flick latency at 60 and 80 minutes
same,Tail flick latency compared with vehicle-treated mice,"[4]; 100 mg/kg oral, given twice, measured at 60, 80, 100, 120 minutes, FIG. 1",statistically significant tail flick latency at 60 and 100 minutes
same,% Inhibition of ear swelling,[5]; 10 mg/kg intraperitoneally at 1 hour and 15 minutes before arachidonic acid,−8%
same,% Inhibition of ear swelling,[5]; 30 mg/kg intraperitoneally at 1 hour and 15 minutes before arachidonic acid,0%
same,% Inhibition of ear swelling,[5]; 100 mg/kg intraperitoneally at 1 hour and 15 minutes before arachidonic acid,34%
same,% Inhibition of ear swelling,"[5]; 100 mg/kg intraperitoneally at 1 hour and 15 minutes before arachidonic acid, listed as tested compound",37%
same,Licks per min (Between 0-10 min),"[6]; 375 mM topical BID (paw submerged), early phase",4.0 Licks per min
same,Licks per min (Between 10-40 min),"[6]; 375 mM topical BID (paw submerged), late phase",1.1 Licks per min
same,Difference in the number of events vs control,"[6]; 375 mM topical, early phase 0-10 minutes",no statistically significant difference
same,Reduction in the number of events vs vehicle,"[6]; 375 mM topical, late phase 10-40 minutes",statistically significant (p<0.05) reduction
same,Paw licking events after topical application alone,[6]; topical application without injection of formalin,negligible number of paw licking events
"CN1CC[C@]23c4c5ccc(O)c4O[C@H]2[C@@H](O)C=C[C@H]3[C@H]1C5 [Morphine, morphine, reference compound]",Duration of efficacy,"[1]; mouse, in vivo",did not last after 40 minutes
same,Licks per min (Between 0-10 min),"[1]; mouse, in vivo",2.1 Licks per min
same,Licks per min (Between 10-40 min),"[1]; mouse, in vivo",0.47 Licks per min
same,Reduction in the number of events vs vehicle,"[1]; mouse, in vivo",statistically significant (p<0.05) reductions
same,Tail flick latency compared with vehicle-treated mice,"[4]; mouse, in vivo",statistically significant tail flick latency at all measured time points
same,Licks per min (Between 0-10 min),"[6]; mouse, in vivo",2.5 Licks per min
same,Licks per min (Between 10-40 min),"[6]; mouse, in vivo",0.53 Licks per min
same,Reduction in the number of events vs vehicle,"[6]; mouse, in vivo",statistically significant (p<0.05) reductions

# Source: US9149488B2, “Pharmaceutical composition and use of diethyl (2-cyanoethyl)phosphonate” (Olatec Industries LLC, priority 2013, dated 2015)
